Patent publication US11117930B2, “Peptide inhibitors of transcription factor aggregation” (ADRX, INC., priority 2017, dated 2021)
Non-standard residues stand in square brackets, D forms with d. Residues, ends and D or L forms follow the SMILES beside them. No end group written: not given here. NMeI = CC[C@H](C)[C@H](NC)C(=O)O

Experiments:
Type in all cases: biochemical
[1] = target: Nat1 (LTIITLE (SEQ ID NO: 225)) (Homo sapiens, UniProt P04637); experiment: Thioflavin T aggregation assay (Nat1); conditions: ThT fluorescence, 50 μM Nat1, pH6.0, room temperature, 2 hours
Procedure: (§1) The peptides of the invention were tested in an in vitro Thiofiavin T aggregation assay [see WO2014/182961]. An increase in Thioflavin T fluorescence is detected over time due to the formation of increasing amounts of amyloid to which the dye can specifically bind. […] For the Nat1 Stock Solution, Nat (LTIITLE (SEQ ID NO: 225), >95% Pure, TFA salt) is dissolved at 8 mM in 25 mM NaOH solution and kept at −80° C. Prior to the assay, it is diluted to 1 mM in H2O. The 2× Reaction Buffer is prepared with 200 mM Sodium Phosphate, pH6.0, 500 mM Sodium Chloride and 200 μM Thioflavin T (ThT). 100 μL of 2× reaction buffer and 80 μL of H2O are added to each well in black, clear-bottomed 96-well plate. Inhibitor peptides are dissolved in H2O to appropriate concentrations to produce 6-points dose response curves. 10 μL of dissolved peptide or H2O (control) is added to each reaction well. 10 μL of 1 mM Nat1 peptide is added to each reaction well (a final concentration of 50 μM). ThT fluorescence is monitored at room temperature every minute for 2 hours with excitation and emission wavelengths of 440 and 485 nm, respectively. IC50 values are calculated using Graphpad Prism.

[2] = target: p63 [RPILIIVTLE—SEQ ID NO: 226] (Homo sapiens, UniProt Q9H3D4); experiment: Thioflavin T aggregation assay, p63 amyloidogenic region; set-up: dose or concentration left out as unconfirmed; conditions: inhibitors added in solution; FIG. 2(a)
Excerpt: (§2) FIGS. 1(a) and 1(b) show the aggregation of p63 and p73 amyloidogenic regions, respectively. The aggregation of the p63 and p73 sequences are monitored via Thioflavin T assay: an increase in Thioflavin T fluorescence is detected over time due to the formation of increasing amounts of amyloid to which the dye can specifically bind.
(§3) FIGS. 2(a) and 2(b) show the in vitro inhibition of p63 and p73 aggregation by several inhibitors. The aggregation is monitored via Thioflavin T assay. […] The baseline of no inhibitor is the line with squares.
The peptides are tested for p63 binding and p73 binding in an in vitro Thiofiavin T aggregation assay. […] The addition of the 50 μM solutions of p63 and p73 peptides to the reaction Buffer described in Example 3, forms amyloid (FIG. 1(a) and FIG. 1(b)). An increase in Thioflavin T fluorescence is detected over time due to the formation of increasing amounts of amyloid to which the dye can specifically bind. […] For the Nat1 Stock Solution, Nat1 (LTIITLE (SEQ ID NO: 225), >95% Pure, TFA salt) is dissolved at 8 mM in 25 mM NaOH solution and kept at −80° C. Prior to the assay, it is diluted to 1 mM in H2O. […] ThT fluorescence is monitored at room temperature every minute for 2 hours with excitation and emission wavelengths of 440 and 485 nm, respectively. […]

[3] = target: p73 [RPILIIITLE—SEQ ID NO: 227] (Homo sapiens, UniProt O15350); experiment: Thioflavin T aggregation assay, p73 amyloidogenic region; set-up: dose or concentration left out as unconfirmed; conditions: inhibitors added in solution; FIG. 2(b)
Excerpt: as §2, §3
as §1, with “An” for “The peptides of the invention were tested in an in vitro Thiofiavin T aggregation assay [see WO2014/182961]. An”, “Solution, Nat1” for “Solution, Nat”, “curves. […]” for “curves. 10 μL of dissolved peptide or H2O (control) is added to each reaction well. 10 μL of 1 mM Nat1 peptide is added to each reaction well (a final concentration of 50 μM).”, “respectively. […]” for “respectively. IC50 values are calculated using Graphpad Prism.”

Compound	IC50 [1]	in vitro inhibition of p63 aggregation [2]	in vitro inhibition of p73 aggregation [3]
CC[C@H](C)[C@@H](C(=O)N[C@@H](CCCCN)C(=O)N[C@@H](Cc1ccc(O)cc1)C(=O)N[C@@H](Cc1c[nH]cn1)C(=O)N[C@@H](CCCNC(=N)N)C(=O)O)N(C)C(=O)[C@H](CCCNC(=N)N)NC(=O)[C@@H](N)CC(C)C [LR(N-Me)IKYHR] (H-LR[NMeI]KYHR-OH; N-terminus and C-terminus assumed)	334 nM		
N=C(N)NCCC[C@@H](N)C(=O)N[C@H](Cc1ccccc1)C(=O)N[C@H](Cc1ccc(O)cc1)C(=O)N[C@H](Cc1ccc(O)cc1)C(=O)N[C@H](Cc1c[nH]cn1)C(=O)N[C@H](CCCNC(=N)N)C(=O)N[C@H](CCCNC(=N)N)C(=O)O [rfyyhrr] (H-[dR][dF][dY][dY][dH][dR][dR]-OH; N-terminus and C-terminus assumed)		delay the aggregation onset and lower the total amount of aggregates present	delay the aggregation onset and lower the total amount of aggregates present
Ac-IRIRRYR-NH2 [Ac-IRIRRYR-NH2]	69 nM		
LLIKYHR [LLIKYHR]		delay the aggregation onset and lower the total amount of aggregates present	delay the aggregation onset and lower the total amount of aggregates present
